Test [1] deals with T1, AMP-activated protein kinase, AMPK (Homo sapiens) (UniProt P54646+O43741+P54619+Q9UGJ0+Q9Y478+Q13131+Q9UGI9). Description: Activation of AMPK in human HepG2 cells assessed as increase in AMPK phosphorylation at 1 to 20 uM after 30 mins by Western blotting. Format: cell-based.
Test [2] addresses T1, AMP-activated protein kinase, AMPK (Homo sapiens). Description: Activation of AMPK in human HepG2 cells assessed as increase in AMPK phosphorylation at 10 uM after 30 mins by Western blotting. Format: cell-based.

Experimental findings from ChEMBL document CHEMBL1828565, “Potential AMPK activators of cucurbitane triterpenoids from Siraitia grosvenorii Swingle” (Bioorg Med Chem, 2011) are described below.

The structures appear in SMILES notation. The source made the active and inactive calls. The rule behind the calls is not given here.

As for `COc1ccc2cc3[n+](cc2c1OC)CCc1cc2c(cc1-3)OCO2`, the result in test [1] was Active.
As for `C[C@H](CC[C@@H](O)C(C)(C)O)[C@H]1CC[C@@]2(C)[C@@H]3CC=C4[C@@H](CC[C@H](O)C4(C)C)[C@]3(C)[C@H](O)C[C@]12C`, in test [1], the outcome was Active.
Take `CC(C)C(=O)CC[C@@H](C)[C@H]1CC[C@@]2(C)[C@@H]3CC=C4[C@@H](CC[C@@H](O)C4(C)C)[C@]3(C)[C@H](O)C[C@]12C`: the outcome in test [2] was Active.
Consider `C[C@H](CC[C@@H](O[C@@H]1O[C@H](CO[C@@H]2O[C@H](CO)[C@@H](O)[C@H](O)[C@H]2O)[C@@H](O)[C@H](O)[C@H]1O[C@@H]1O[C@H](CO)[C@@H](O)[C@H](O)[C@H]1O)C(C)(C)O)[C@H]1CC[C@@]2(C)[C@@H]3CC=C4[C@@H](CC[C@H](O[C@@H]5O[C@H](CO[C@@H]6O[C@H](CO)[C@@H](O)[C@H](O)[C@H]6O)[C@@H](O)[C@H](O)[C@H]5O)C4(C)C)[C@]3(C)[C@H](O)C[C@]12C`, for which, in test [1], the result was inactive.
Same read-out and setting: for `C[C@H](CC[C@@H](O)C(C)(C)O)[C@H]1CC[C@@]2(C)[C@@H]3CC=C4[C@@H](CC[C@@H](O)C4(C)C)[C@]3(C)[C@H](O)C[C@]12C` the value was “Active”; for `COC(C)(C)[C@H](O)CC[C@@H](C)[C@H]1CC[C@@]2(C)[C@@H]3CC=C4[C@@H](CC[C@H](O)C4(C)C)[C@]3(C)C(=O)C[C@]12C`, “Active”; for `C[C@H](CC[C@@H](O)C(C)(C)O)[C@H]1CC[C@@]2(C)[C@@H]3CC=C4[C@@H](CC[C@H](O)C4(C)C)[C@]3(C)C(=O)C[C@]12C`, “Active”.
On to `CC(C)C(=O)CC[C@@H](C)[C@H]1CC[C@@]2(C)[C@@H]3CC=C4[C@@H](CC[C@H](O)C4(C)C)[C@]3(C)C(=O)C[C@]12C`, for which the outcome in test [1] was Active.
The same measure, in the same setting: for `COC(C)(C)[C@H](O)CC[C@@H](C)[C@H]1CC[C@@]2(C)[C@@H]3CC=C4[C@@H](CC[C@H](O)C4(C)C)[C@]3(C)[C@H](O)C[C@]12C` the value was “Active”; for `CC(C)C(=O)CC[C@@H](C)[C@H]1CC[C@@]2(C)[C@@H]3CC=C4[C@@H](CC[C@H](O)C4(C)C)[C@]3(C)[C@H](O)C[C@]12C`, “Active”.
